Several values for one entry are separate records, joined by “and”; a condition that tells them apart may be missing. Equal entries are not always repeated. Where two headings read alike, the source gives them in different places.
Legend:
[1] = Pharmacokinetics after topical administration in the rabbit; assay type: in vivo, Dutch-belted rabbits; settings: single topical eye drop 100 μg; 10 minutes, 2 and 7 hours
Method: To determine the pharmacokinetic properties of Edonentan following topical administration in the rabbit, rabbits (Dutch-belted rabbits) received an eye drop in both eyes (100 μg of Edonentan, 35 μL dose volume/eye). After the administrations, the animals (N=2) were euthanized at different time points (e.g. 10 minutes (immediately after pot-dose), 2 and 7 hours) and tissues were collected for analysis. List of tissues collected include plasma, retina, vitreous humor and bulbar conjunctiva.

[2] = tested on: ET-1 induced vasospasm; assay: Rabbit ET-1 induced vasospasm model, retinal blood flow; assay type: in vivo
Method: Adult, male Dutch-belted rabbits were given a 20 μl intravitreal injection (IVT) of 0.5 μg of ET-1 followed by a 20 μl intravitreal injection of 10-100 μg Edonentan given 30 min after the ET-1 administration. IOP, optical coherence tomography-angiography (OCT-A), and fluorescein angiograms (FA) were performed at pre-specified time points (30, 45, 60, and 75 min) following ET-1 and Edonentan administration to assess retinal blood flow changes induced by ET-1+/−Edonentan. […] To evaluate the effect of retinal blood flow following intravitreally administered endothelin-1 (ET-1) followed by the antagonist Edonentan in the rabbit, rabbits (Oryctolagus cuniculus) were given a 20 μL intravitreal injection of ET-1 in the left eye followed by a 20 μL intravitreal injection of Edonentan at 2 (or 3) different doses (e.g. 0.1 μg, 0.5 μg, 2.5 μg). The pulse ox, tonometry, optical coherence tomography angiography (OCTA), fluorescein angiography (FA) and retinal leakage scoring were performed for evaluation.

[3] = tested on: elevated intraocular pressure (IOP); assay: Morrison's rat model of glaucoma (elevated IOP); assay type: in vivo, Brown Norway rats; settings: topical eye drops 100 μg per dose, five days a week, four weeks
Text: Adult male and female retired breeder Brown Norway rats (approximate age groups of 8 to 11 months) were obtained from Envigo (Indianapolis, Ind.). Baseline IOP measurements and pattern electroretinogram (PERG) amplitudes were collected prior to the surgery for elevation of IOP (to ensure that the IOP and PERG amplitudes were in the expected range of values). IOP was elevated in one eye (left eye) of the rats, while the corresponding right eyes served as contralateral controls. The Morrison method to elevate IOP in rats was carried out by injection of 50 μL of hypertonic saline through the episcleral veins to sclerose the trabecular meshwork. IOP was measured twice a week throughout the entire duration of the experiment. […] After detecting an elevation of IOP for two consecutive days, topical administration of eye drops (20 μL (100 μg) per dose of the tested compounds in the IOP elevated eye) was commenced and carried out for five days a week for a total of four weeks. In the 4th week of treatment, PERG analysis was carried out and rats were sacrificed by an overdose of pentobarbital (Fatal-Plus). Aqueous humor was collected from the rat eyes, frozen and shipped for analysis. Retinal flat mounts were prepared, immunostained with the RGC marker, Brn3a antibody and surviving RGCs were counted in two eccentricities (central and peripheral). For this study, the Morrison's model was used to induce ocular hypertension in adult male retired breeder Brown Norway rats as previously described by Morrison et al., (Morrison J C, Moore […], Gold […], Johnson E C. A rat model of chronic pressure-induced optic nerve damage. Exp Eye Res. 1997; 64(1):85-96). The immunostained retinal flat mounts were obtained to measure the retinal ganglion cell (RGC) counts. To obtain immunostained retinal flat mounts, the animals were euthanized after the treatments and then their eyes were enucleated. The eye cups were fixed overnight at 4° C. in 4% paraformaldehyde (PFA) and retinal flat mounts were prepared for collecting images. The retinal ganglion cell (RGC) counting was conducted using the images of immunostained retinal flat mounts. The images were uploaded to ImageJ, a photo editor designed for biology research (Rasband, 1997-2018) and the labeled retinal ganglion cells were counted manually in two eccentricities (central and peripheral). […] Pattern ERG (PERG) was used to assess the RGC function. […] Briefly, PERG signals were acquired from a DTL-plus electrode placed on the lower part of the corneal surface and the PERG waves were analyzed using the EMWIN software (LKC). The difference between the amplitude of the major positive (P1) and negative (N2) waves were calculated to […] amplitude.

[4] = Solubility; assay type: physicochemical
Text: (§1) In the above table, the physicochemical data, e.g., solubility, were obtained following standard protocols known in the field (see, e.g., Reis et al., Mini Rev Med Chem., 2010, 10(11):1071-6; Avdeef et al., Expert Opin Drug Metab Toxicol., 2005, 1(2):325-42; Bharate et al., Comb Chem High Throughput Screen., 2016, 19(6):461-9; and Jain et al., J Pharm Biomed Anal., 2013, 86:11-35); and the biochemical data, i.e., potency for ETA/ETB, were obtained following the protocols known in the field (see, e.g., Kirkby et al., Br J Pharmacol., 2008, 153(6):1105-19; and Maguire et al., Br J Pharmacol., 2014, 171(24):5555-72).

[5] = Pharmacokinetics after topical or oral administration in the rat; assay type: in vivo, Brown Norway rats
Method: After the administrations, the animals (N=2) were euthanized at different time points (e.g. 4 and 8 hours) and tissues were collected for analysis. List of tissues collected include plasma, retina/retinal pigment epithelium (RPE)/choroid, vitreous humor and aqueous humor.

[6] = Permeability (PAMPA); assay type: in vitro ADME; settings: rating in words
Text: as §1

[7] = LogD; assay type: physicochemical; settings: pH 7.4
Text: as §1

Cc1onc(NS(=O)(=O)c2ccccc2-c2ccc(-c3ncco3)cc2CN(C)C(=O)CC(C)(C)C)c1C [Edonentan, N-[[2′-[[(4,5-dimethyl-3-isoxazolyl)amino]sulfonyl]-4-(2-oxazolyl)[1,1′-biphenyl]-2-yl]methyl]-N,3,3-trimethylbutanamide]
Detection in plasma, retina, vitreous humor and bulbar conjunctiva [1]: detected in all tissues examined at all timepoints | Fluorescein dye velocity, dose dependence ([2]; 0.1 μg ET-1 and 0.1, 0.5, 2.5 or 10 μg Edonentan IVT, FIG. 8A/8B): dose-response | Effect of ET-1 (retinal vasoconstriction) after antagonist, fluorescein angiography ([2]; 0.5 μg ET-1 IVT, 10 μg Edonentan IVT 30 min after ET-1): reversed | Time to reversal of ET-1 effect ([2]; 0.5 μg ET-1 IVT, 10 μg Edonentan IVT, time after ET-1 (60 min after Edonentan)): ≤ 90 min | Fluorescein dye velocity as an index of retinal blood flow ([2]; 0.5 μg ET-1 and 10 μg antagonist IVT, healthy rabbits, FIG. 3): improved to control levels | RGC function, pattern electroretinogram (PERG) changes [3]: maintained RGC function | Retinal ganglion cell (RGC) counts, peripheral retina [3]: prevented RGC loss | solubility ([4]; aqueous buffer, pH 7, amorphous form, read-out: Solubility at pH 7): 326 µg/mL and 607 µM | solubility ([4]; ethyl acetate, organic solvent or mixture, read-out: Solubility in Ethyl Acetate): > 8900 µg/mL and > 16800 µM | Solubility in Ethyl Acetate (rating) ([4]; ethyl acetate, rating in words): Good | solubility ([4]; pH 2, simulated gastric fluid, read-out: Solubility at pH 2): < 0.54 µg/mL and < 1 µM | Detection in aqueous humor ([5]; oral, 17 mg/kg): detectable | Detection in retina/RPE/choroid and vitreous humor ([5]; oral, 1.7 and 17 mg/kg): detectable | Detection in retina/RPE/choroid, aqueous humor and vitreous humor ([5]; topical eye drop 100 μg, 4 and 8 hours post-administration): detected | Permeability (rating) [6]: Mid-High | logD [7]: 1.48
